In the supplement of paper PMC10307832:

Legend:
Assay in all cases: relative viability (nuclei count vs DMSO), 5 days (fraction); higher = more cells survive
XMD8-85 + Lapatinib = compound: CN1CCN(CC1)C2=CC(=C(C=C2)NC3=NC=C4C(=N3)N(C5=CC=CC=C5C(=O)N4C)C)OC [XMD8-85] + CS(=O)(=O)CCNCc1ccc(-c2ccc3ncnc(Nc4ccc(OCc5cccc(F)c5)c(Cl)c4)c3c2)o1 [Lapatinib] (partner 2 µM)
Outline: (§1)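 Values are medians from duplicate plates. Each reflects relative viability, defined as the nuclei count of treated wells over that of vehicle wells. Lung cancer cell lines in 1536-well plates were pin-tool dosed one day after seeding with one drug alone or with a fixed anchor-drug dose plus five library-drug doses (not always all listed) in √10 steps, then fixed, stained and imaged at 4× after 5 days.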

4EGI-1 + Tozasertib = compound: O=C(O)C(Cc1ccccc1[N+](=O)[O-])=NNc1nc(-c2ccc(Cl)c(Cl)c2)cs1 (mixture of isomers) [4EGI-1] + Cc1cc(Nc2cc(N3CCN(C)CC3)nc(Sc3ccc(NC(=O)C4CC4)cc3)n2)n[nH]1 [Tozasertib] (partner 0.1 µM)
Outline: as §1

4EGI-1 + Decitabine = compound: O=C(O)C(Cc1ccccc1[N+](=O)[O-])=NNc1nc(-c2ccc(Cl)c(Cl)c2)cs1 (mixture of isomers) [4EGI-1] + Nc1ncn([C@H]2C[C@H](O)[C@@H](CO)O2)c(=O)n1 [Decitabine] (partner 2 µM)
Outline: as §1

XMD8-85 + Olaparib = compound: CN1CCN(CC1)C2=CC(=C(C=C2)NC3=NC=C4C(=N3)N(C5=CC=CC=C5C(=O)N4C)C)OC [XMD8-85] + O=C(c1cc(Cc2n[nH]c(=O)c3ccccc23)ccc1F)N1CCN(C(=O)C2CC2)CC1 [Olaparib] (partner 8 µM)
Outline: as §1

Cell Line | relative viability (XMD8-85 + Lapatinib; first compound 0.08 µM) | relative viability (XMD8-85 + Lapatinib; first compound 0.253 µM) | relative viability (XMD8-85 + Lapatinib; first compound 0.8 µM) | relative viability (XMD8-85 + Lapatinib; first compound 2.53 µM) | relative viability (XMD8-85 + Lapatinib; first compound 8 µM) | relative viability (4EGI-1 + Tozasertib; first compound 0.5 µM) | relative viability (4EGI-1 + Tozasertib; first compound 1.581 µM) | relative viability (4EGI-1 + Tozasertib; first compound 5 µM) | relative viability (4EGI-1 + Tozasertib; first compound 15.81 µM) | relative viability (4EGI-1 + Tozasertib; first compound 50 µM) | relative viability (4EGI-1 + Decitabine; first compound 0.5 µM) | relative viability (4EGI-1 + Decitabine; first compound 1.581 µM) | relative viability (4EGI-1 + Decitabine; first compound 5 µM) | relative viability (4EGI-1 + Decitabine; first compound 15.81 µM) | relative viability (4EGI-1 + Decitabine; first compound 50 µM) | relative viability (XMD8-85 + Olaparib; first compound 0.08 µM) | relative viability (XMD8-85 + Olaparib; first compound 0.253 µM) | relative viability (XMD8-85 + Olaparib; first compound 0.8 µM) | relative viability (XMD8-85 + Olaparib; first compound 8 µM) | relative viability (XMD8-85 + Olaparib; first compound 2.53 µM)
SW 1573 | 1.1 | 1.21 | 1.02 | 1.09 | 0.885 | 0.176 | 0.188 | 0.149 | 0.172 | 0.102 | 0.623 | 0.427 | 0.495 | 0.254 | 0.112 | 0.496 | 0.48 | 0.546 | 0.341 | –
RERF-LC-KJ | 0.871 | 0.795 | 0.905 | 0.989 | 0.769 | 0.547 | – | 0.425 | 0.363 | 0.216 | 0.828 | – | 0.609 | 0.444 | 0.285 | 1.05 | 0.927 | 0.929 | 0.769 | 0.872
SK-MES-1 | 0.443 | 0.493 | 0.446 | 0.464 | 0.419 | 0.894 | 0.596 | 0.925 | 0.699 | 0.234 | 0.384 | 0.323 | 0.362 | 0.285 | 0.241 | 0.819 | 0.683 | – | 0.408 | 0.707
NCI-H1993 | 0.662 | 0.755 | 0.93 | 0.819 | 0.774 | 0.552 | 0.627 | 0.563 | 0.511 | 0.492 | 0.74 | 0.548 | 0.588 | 0.619 | 0.462 | – | 0.942 | 1 | 0.792 | 1.07
NCI-H1915 | 0.954 | 1.01 | 1.09 | 0.986 | 0.921 | 0.448 | 0.327 | 0.421 | 0.326 | 0.201 | 0.27 | 0.226 | 0.259 | 0.247 | 0.215 | 0.291 | 0.263 | 0.252 | 0.185 | 0.222
NCI-H1650 | 0.729 | 0.819 | 0.92 | 0.671 | 0.281 | 0.474 | – | 0.413 | 0.327 | 0.267 | 0.37 | – | 0.421 | 0.256 | 0.293 | 0.877 | 0.91 | 0.951 | 0.303 | 0.699
HCC-44 | 0.942 | 0.884 | 1.1 | 1.06 | 0.959 | 0.971 | – | 0.946 | 0.384 | 0.282 | 0.964 | 0.905 | 0.936 | 0.924 | 0.432 | 0.991 | 0.955 | 0.946 | 0.849 | 0.996
NCI-H2170 | 0.277 | 0.302 | 0.253 | 0.256 | 0.249 | 0.829 | 0.728 | 0.628 | 0.617 | 0.314 | 0.502 | 0.449 | 0.459 | 0.441 | 0.282 | 0.51 | 0.627 | 0.599 | 0.532 | 0.601
NCI-H1975 | 0.897 | 0.832 | 0.886 | 1.1 | 0.441 | 0.773 | 0.653 | 0.785 | 0.523 | 0.179 | 0.367 | 0.433 | 0.375 | 0.355 | 0.221 | 0.774 | 0.784 | 0.88 | 0.376 | 0.711
HCC-827 | 0.185 | 0.192 | 0.175 | 0.195 | 0.193 | 0.428 | 0.422 | 0.415 | – | 0.358 | 0.263 | 0.31 | 0.344 | – | 0.219 | 0.67 | 0.714 | 0.684 | 0.701 | 0.739
NCI-H2347 | 0.892 | 0.958 | 0.9 | 1.02 | 0.771 | 0.589 | – | 0.557 | 0.46 | 0.467 | 0.68 | 0.649 | 0.569 | 0.586 | 0.543 | 0.55 | 0.598 | 0.617 | 0.559 | 0.619
NCI-H1437 | 0.785 | 0.888 | 0.804 | 0.792 | 0.407 | 0.416 | 0.378 | 0.399 | 0.318 | 0.175 | 0.58 | 0.593 | 0.544 | 0.435 | 0.221 | 0.611 | 0.62 | 0.657 | 0.439 | 0.611
NCI-H2126 | 0.705 | 0.714 | 0.757 | 0.837 | 0.646 | 1 | – | 0.861 | 0.822 | 0.741 | 0.611 | 0.65 | 0.617 | 0.472 | 0.488 | 0.958 | 0.897 | 0.954 | 0.94 | 0.889
NCI-H596 | 1.01 | 1.03 | 1.24 | 1.03 | 0.874 | 1.01 | 0.769 | 0.987 | 0.949 | 0.783 | 1.01 | 1.11 | 1.16 | 0.942 | 0.569 | 0.696 | 0.602 | 0.702 | 0.467 | 0.49
NCI-H2009 | 0.934 | 0.931 | 1.01 | 0.841 | 0.456 | 0.813 | 0.709 | 0.784 | 0.697 | 0.211 | 0.419 | 0.359 | 0.389 | 0.292 | 0.317 | 0.776 | 0.748 | 0.779 | 0.268 | 0.544
NCI-H2085 | 0.791 | 0.778 | 0.815 | 0.719 | 0.566 | 0.835 | 0.859 | 0.836 | 0.724 | 0.775 | 0.536 | 0.578 | 0.513 | 0.488 | 0.317 | 0.729 | 0.743 | 0.77 | 0.699 | 0.725
